# Data as given in paper PMC7313537 (PLoS ONE, 2020).
# Tests used:
# [1] = test system: RT-112 (bladder cancer); test: Cell viability assay (CellTiter-Glo); assay type: cell-based; conditions: Homo sapiens, FGFR3-TACC3 fusion, 72 hours, read-out: Mean GI50 ± S.D.
# [2] = test system: phospho-FGFR3 in RT-112 cells; conditions: proximity ligation assay
# [3] = molecular target: ERBB4 (Homo sapiens, UniProt Q15303); test: Enzyme selectivity panel; assay type: biochemical; conditions: 1 mM ATP
# Method: (§2) The kinase assays were carried out at room temperature in HEPES 50 mM, pH 7.0, NaN3 0.02%, BSA 0.01%, Orthovanadate 0.1 mM, DTT 1 mM, MgCl2 10 mM in a final volume of 10 µL. Test compounds were transferred to the plate wells by ECHO liquid handler (Labcyte, San Jose, CA) with 0.5% dimethyl sulfoxide (DMSO) in the final assay. Peptide/kinase mixtures were diluted in the appropriate enzymatic buffer and 5µL of the mixture was added to a 384-well small volume black plate. Reactions were initiated by the addition of 5 µL ATP in reaction buffer, the final reaction mixture consisted of 500 nM peptide substrate, 1 mM ATP, and appropriate amount of specific kinase. […] The plates were then sealed and centrifuged at 1800 rpm for 2 minutes. […] Half maximal inhibitory concentration (IC50) determination was performed by fitting the curve of percent control activity versus the log of the compound concentration using the GraphPad Prism 6.0 software.
# [4] = molecular target: FLT3 (Homo sapiens, UniProt P36888); test: Enzyme selectivity panel; assay type: biochemical; conditions: 1 mM ATP
# Method: as §2
# [5] = molecular target: T1, ROS (ROS1) (Homo sapiens, UniProt P08922); test: Broader kinase panel (PerkinElmer); assay type: biochemical; conditions: 100 nM; read-out: Average Percent Inhibition
# T1 construct: purchased In-house HTRF panel (56 kinases) and PerkinElmer (161-kinase panel)
# Description: (§1) […]. […] […].
# [6] = molecular target: T2, NEK1 (Homo sapiens, UniProt Q96PY6); test: Broader kinase panel (PerkinElmer); assay type: biochemical; conditions: 100 nM; read-out: Average Percent Inhibition
# T2 construct: purchased In-house HTRF panel (56 kinases) and PerkinElmer (161-kinase panel)
# Description: as §1
# [7] = molecular target: T3, TXK (Homo sapiens, UniProt P42681); test: Broader kinase panel (PerkinElmer); assay type: biochemical; conditions: 100 nM; read-out: Average Percent Inhibition
# T3 construct: purchased In-house HTRF panel (56 kinases) and PerkinElmer (161-kinase panel)
# Description: as §1
# [8] = molecular target: T4, LTK (Homo sapiens, UniProt P29376); test: Broader kinase panel (PerkinElmer); assay type: biochemical; conditions: 100 nM; read-out: Average Percent Inhibition
# T4 construct: purchased In-house HTRF panel (56 kinases) and PerkinElmer (161-kinase panel)
# Description: as §1
# [9] = molecular target: T5, PAK3 (Homo sapiens, UniProt O75914); test: Broader kinase panel (PerkinElmer); assay type: biochemical; conditions: 100 nM; read-out: Average Percent Inhibition
# T5 construct: purchased In-house HTRF panel (56 kinases) and PerkinElmer (161-kinase panel)
# Description: as §1
# [10] = molecular target: IGF1R (Homo sapiens, UniProt P08069); test: Broader kinase panel (PerkinElmer); assay type: biochemical; conditions: 100 nM; read-out: Average Percent Inhibition
# Description: as §1
# [11] = molecular target: T6, PKC-beta1 (Homo sapiens, UniProt P05771); test: Broader kinase panel (PerkinElmer); assay type: biochemical; conditions: 100 nM; read-out: Average Percent Inhibition
# T6 construct: purchased In-house HTRF panel (56 kinases) and PerkinElmer (161-kinase panel)
# Description: as §1
# [12] = molecular target: RSK2 (Homo sapiens, UniProt P51812); test: Broader kinase panel (PerkinElmer); assay type: biochemical; conditions: 100 nM; read-out: Average Percent Inhibition
# Description: as §1
# [13] = molecular target: T7, ABL1(Y253F) (Homo sapiens, UniProt P00519, Y253F); test: Broader kinase panel (PerkinElmer); assay type: biochemical; conditions: 100 nM; read-out: Average Percent Inhibition
# T7 construct: purchased In-house HTRF panel (56 kinases) and PerkinElmer (161-kinase panel)
# Description: as §1
# [14] = molecular target: T8, Erk2 (Homo sapiens, UniProt P28482); test: Broader kinase panel (PerkinElmer); assay type: biochemical; conditions: 100 nM; read-out: Average Percent Inhibition
# T8 construct: purchased In-house HTRF panel (56 kinases) and PerkinElmer (161-kinase panel)
# Description: as §1
# [15] = molecular target: T9, HGK (Homo sapiens, UniProt O95819); test: Broader kinase panel (PerkinElmer); assay type: biochemical; conditions: 100 nM; read-out: Average Percent Inhibition
# T9 construct: purchased In-house HTRF panel (56 kinases) and PerkinElmer (161-kinase panel)
# Description: as §1
# [16] = molecular target: T10, MNK1 (MKNK1) (Homo sapiens, UniProt Q9BUB5); test: Broader kinase panel (PerkinElmer); assay type: biochemical; conditions: 100 nM; read-out: Average Percent Inhibition
# T10 construct: purchased In-house HTRF panel (56 kinases) and PerkinElmer (161-kinase panel)
# Description: as §1
# [17] = molecular target: T11, ABL1(E255K) (Homo sapiens, UniProt P00519, E255K); test: Broader kinase panel (PerkinElmer); assay type: biochemical; conditions: 100 nM; read-out: Average Percent Inhibition
# T11 construct: purchased In-house HTRF panel (56 kinases) and PerkinElmer (161-kinase panel)
# Description: as §1
# [18] = molecular target: T12, RSK3 (Homo sapiens, UniProt Q15349); test: Broader kinase panel (PerkinElmer); assay type: biochemical; conditions: 100 nM; read-out: Average Percent Inhibition
# T12 construct: purchased In-house HTRF panel (56 kinases) and PerkinElmer (161-kinase panel)
# Description: as §1
# [19] = test system: xenografted tumor models; test: Combination with cisplatin in xenografted tumor models; assay type: in vivo; conditions: combination of INCB054828 with cisplatin
# [20] = molecular target: CHEK2 (Homo sapiens, UniProt O96017); test: Enzyme selectivity panel; assay type: biochemical; conditions: 1 mM ATP
# Method: as §2
# [21] = molecular target: T13, hERG potassium current (Homo sapiens, UniProt Q12809); test: hERG potassium current (ChanTest); assay type: cell-based; conditions: estimated; precise IC50 not calculated due to compound insolubility; data provided by ChanTest; read-out: IC50 for the inhibitory effect on hERG potassium current
# T13 construct: ChanTest Corporation, Cleveland, OH
# [22] = molecular target: IKKB (Homo sapiens, UniProt O14920); test: Enzyme selectivity panel; assay type: biochemical; conditions: 1 mM ATP
# Method: as §2
# [23] = test system: HEK293; test: Cell viability assay (CellTiter-Glo); assay type: cell-based; conditions: Homo sapiens, Embyronic kidney, lacking FGFR alterations
# [24] = test system: phospho-FRS2 and phospho-ERK in RT-4 cells (FGFR3-TACC3); test: Western blot of FGFR pathway markers; assay type: cell-based; conditions: 2 hours
# Description: All antibodies were purchased from commercial sources as follows: antibodies against FGFR1 (monoclonal [rabbit], catalogue no. 9740, Antibody Registry Identifier AB_11178519), ERK (monoclonal [mouse], 9107, AB_10695739), phospho-p42/44 ERK1/2 (monoclonal [rabbit], 4370, AB_2315112), phospho-STAT5 (Tyr694; monoclonal [rabbit], 4322, AB_10544692), and STAT5 (monoclonal [rabbit], 9358, AB_659905) were from Cell Signaling Technologies (Danvers, MA) and used at 1:1000 dilution; FGFR3 (monoclonal [rabbit], AB133644, AB_2810262) and FRS2 (polyclonal [rabbit], AB10425, AB_2247176) were from Abcam (Cambridge, UK) and used at 1:2000; and phospho-FRS2 (Tyr436; polyclonal [rabbit], AF5126, AB_2106234) was from R&D Systems (Minneapolis, MN) and used at 1 μg/mL. The pFGFR2 enzyme-linked immunosorbent assay (ELISA) kit was purchased from R&D Systems and ELISA was performed per manufacturer protocol.
# Original Western blot images are shown in S1 File (S1 Raw images).
# [25] = test system: serum inorganic phosphate; test: Serum phosphate pharmacodynamic study; assay type: in vivo, C57BL/6 mice; conditions: single oral dose
# Method: Female C57BL/6 mice, 5–8 weeks of age, were obtained from Charles River Laboratories. […] Twenty-four hours after dosing, mice were anesthetized under isoflurane. Approximately 200 μL of whole blood was collected by capillary retro-orbital sinus sampling into lithium heparin collection tubes (RAM Scientific, Yonkers, NY). Blood was maintained at 4°C and transported for analysis to DuPont Haskell Global Centers for Health and Environmental Science (Newark, DE). Each sample was analyzed for levels of inorganic phosphate within 4 hours of receipt. Serum clinical chemistry parameters were determined using an Olympus® AU640 clinical chemistry analyzer (Beckman Coulter, Brea, CA). Both phosphate and calcium are manufacturer-supplied reagents and methods.
# [26] = molecular target: EGFR (Homo sapiens, UniProt P00533); test: Enzyme selectivity panel; assay type: biochemical; conditions: 1 mM ATP
# Method: as §2
# [27] = molecular target: CHEK1 (Homo sapiens, UniProt O14757); test: Enzyme selectivity panel; assay type: biochemical; conditions: 1 mM ATP
# Method: as §2
# [28] = molecular target: T14, EPHB4 (Homo sapiens, UniProt P54760); test: Enzyme selectivity panel; assay type: biochemical; conditions: 1 mM ATP
# T14 construct: purchased In-house HTRF panel (56 kinases) and PerkinElmer (161-kinase panel)
# Method: as §2
# [29] = molecular target: T15, GSK3B (Homo sapiens, UniProt P49841); test: Enzyme selectivity panel; assay type: biochemical; conditions: 1 mM ATP
# T15 construct: purchased In-house HTRF panel (56 kinases) and PerkinElmer (161-kinase panel)
# Method: as §2
# [30] = molecular target: PRKAA1 (Homo sapiens, UniProt Q13131); test: Enzyme selectivity panel; assay type: biochemical; conditions: 1 mM ATP
# Method: as §2
# Chain of IGF1R (P08069 31-1367, species assumed): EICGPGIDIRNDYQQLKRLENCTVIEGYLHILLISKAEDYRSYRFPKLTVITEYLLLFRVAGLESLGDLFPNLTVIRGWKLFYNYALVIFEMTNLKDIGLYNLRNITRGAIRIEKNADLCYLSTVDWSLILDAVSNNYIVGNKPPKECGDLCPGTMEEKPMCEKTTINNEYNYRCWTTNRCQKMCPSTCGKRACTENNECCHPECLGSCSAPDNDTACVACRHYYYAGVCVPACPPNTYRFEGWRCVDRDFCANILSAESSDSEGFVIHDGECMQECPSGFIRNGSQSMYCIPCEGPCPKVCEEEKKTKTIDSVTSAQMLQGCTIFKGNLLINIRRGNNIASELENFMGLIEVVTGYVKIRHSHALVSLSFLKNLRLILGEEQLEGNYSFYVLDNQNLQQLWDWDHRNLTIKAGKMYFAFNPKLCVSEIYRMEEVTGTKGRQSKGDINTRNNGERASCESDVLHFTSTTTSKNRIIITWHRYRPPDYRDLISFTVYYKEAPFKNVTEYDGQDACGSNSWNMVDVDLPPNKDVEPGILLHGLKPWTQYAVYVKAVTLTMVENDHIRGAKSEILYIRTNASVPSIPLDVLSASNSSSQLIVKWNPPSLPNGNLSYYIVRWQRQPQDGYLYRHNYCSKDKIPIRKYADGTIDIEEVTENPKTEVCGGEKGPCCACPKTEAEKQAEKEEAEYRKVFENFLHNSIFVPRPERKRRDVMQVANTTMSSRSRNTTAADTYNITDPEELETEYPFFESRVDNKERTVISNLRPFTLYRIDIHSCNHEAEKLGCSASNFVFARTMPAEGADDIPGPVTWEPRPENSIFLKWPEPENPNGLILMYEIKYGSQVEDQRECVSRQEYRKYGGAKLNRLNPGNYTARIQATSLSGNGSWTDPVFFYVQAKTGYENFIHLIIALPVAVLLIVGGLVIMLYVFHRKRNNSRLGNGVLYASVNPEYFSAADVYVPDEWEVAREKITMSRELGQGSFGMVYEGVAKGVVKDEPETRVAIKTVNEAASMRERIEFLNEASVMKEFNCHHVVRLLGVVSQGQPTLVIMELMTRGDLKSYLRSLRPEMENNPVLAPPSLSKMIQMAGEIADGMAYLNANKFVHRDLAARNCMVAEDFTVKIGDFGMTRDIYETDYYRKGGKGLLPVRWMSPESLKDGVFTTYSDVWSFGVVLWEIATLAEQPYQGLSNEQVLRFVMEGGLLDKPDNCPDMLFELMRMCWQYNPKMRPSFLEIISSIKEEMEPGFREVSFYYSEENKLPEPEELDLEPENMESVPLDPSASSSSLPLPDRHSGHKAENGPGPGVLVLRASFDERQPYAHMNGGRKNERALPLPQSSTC
# T5 sequence (O75914 whole entry): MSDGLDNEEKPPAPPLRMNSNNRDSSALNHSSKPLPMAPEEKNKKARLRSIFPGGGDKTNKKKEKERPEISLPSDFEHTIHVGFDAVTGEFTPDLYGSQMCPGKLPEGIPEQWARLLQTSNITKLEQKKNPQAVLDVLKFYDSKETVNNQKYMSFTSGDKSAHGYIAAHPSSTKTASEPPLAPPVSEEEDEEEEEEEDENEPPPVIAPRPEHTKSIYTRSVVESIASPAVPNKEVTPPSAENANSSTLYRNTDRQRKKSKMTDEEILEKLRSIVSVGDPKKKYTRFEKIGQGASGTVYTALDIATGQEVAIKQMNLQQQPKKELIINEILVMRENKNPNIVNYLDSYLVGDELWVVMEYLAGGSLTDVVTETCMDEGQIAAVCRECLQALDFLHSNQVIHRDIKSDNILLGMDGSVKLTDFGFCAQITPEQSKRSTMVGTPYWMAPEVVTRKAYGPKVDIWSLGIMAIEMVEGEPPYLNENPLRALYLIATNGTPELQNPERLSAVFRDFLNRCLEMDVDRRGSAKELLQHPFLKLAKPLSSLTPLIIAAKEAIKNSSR
# Chain of RSK2 (P51812 whole entry, species assumed): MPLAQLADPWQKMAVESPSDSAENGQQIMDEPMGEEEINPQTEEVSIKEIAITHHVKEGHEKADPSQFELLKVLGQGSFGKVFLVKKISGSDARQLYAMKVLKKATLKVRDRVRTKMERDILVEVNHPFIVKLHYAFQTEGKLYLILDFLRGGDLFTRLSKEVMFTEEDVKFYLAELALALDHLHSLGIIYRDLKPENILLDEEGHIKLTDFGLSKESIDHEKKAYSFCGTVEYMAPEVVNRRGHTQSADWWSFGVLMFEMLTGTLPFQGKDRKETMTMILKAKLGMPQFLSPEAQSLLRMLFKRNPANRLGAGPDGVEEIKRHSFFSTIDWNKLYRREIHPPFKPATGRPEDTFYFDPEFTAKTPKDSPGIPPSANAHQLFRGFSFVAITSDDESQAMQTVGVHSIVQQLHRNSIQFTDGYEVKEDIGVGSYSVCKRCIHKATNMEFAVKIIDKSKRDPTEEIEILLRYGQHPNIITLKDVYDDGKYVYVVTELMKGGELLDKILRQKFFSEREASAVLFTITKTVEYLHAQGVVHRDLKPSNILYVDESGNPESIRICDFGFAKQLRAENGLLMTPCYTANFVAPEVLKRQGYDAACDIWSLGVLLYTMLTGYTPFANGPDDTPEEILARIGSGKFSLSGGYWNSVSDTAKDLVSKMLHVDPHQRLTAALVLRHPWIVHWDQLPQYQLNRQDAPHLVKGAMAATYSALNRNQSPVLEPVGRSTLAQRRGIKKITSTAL
# Chain of FLT3 (P36888 27-993, species assumed): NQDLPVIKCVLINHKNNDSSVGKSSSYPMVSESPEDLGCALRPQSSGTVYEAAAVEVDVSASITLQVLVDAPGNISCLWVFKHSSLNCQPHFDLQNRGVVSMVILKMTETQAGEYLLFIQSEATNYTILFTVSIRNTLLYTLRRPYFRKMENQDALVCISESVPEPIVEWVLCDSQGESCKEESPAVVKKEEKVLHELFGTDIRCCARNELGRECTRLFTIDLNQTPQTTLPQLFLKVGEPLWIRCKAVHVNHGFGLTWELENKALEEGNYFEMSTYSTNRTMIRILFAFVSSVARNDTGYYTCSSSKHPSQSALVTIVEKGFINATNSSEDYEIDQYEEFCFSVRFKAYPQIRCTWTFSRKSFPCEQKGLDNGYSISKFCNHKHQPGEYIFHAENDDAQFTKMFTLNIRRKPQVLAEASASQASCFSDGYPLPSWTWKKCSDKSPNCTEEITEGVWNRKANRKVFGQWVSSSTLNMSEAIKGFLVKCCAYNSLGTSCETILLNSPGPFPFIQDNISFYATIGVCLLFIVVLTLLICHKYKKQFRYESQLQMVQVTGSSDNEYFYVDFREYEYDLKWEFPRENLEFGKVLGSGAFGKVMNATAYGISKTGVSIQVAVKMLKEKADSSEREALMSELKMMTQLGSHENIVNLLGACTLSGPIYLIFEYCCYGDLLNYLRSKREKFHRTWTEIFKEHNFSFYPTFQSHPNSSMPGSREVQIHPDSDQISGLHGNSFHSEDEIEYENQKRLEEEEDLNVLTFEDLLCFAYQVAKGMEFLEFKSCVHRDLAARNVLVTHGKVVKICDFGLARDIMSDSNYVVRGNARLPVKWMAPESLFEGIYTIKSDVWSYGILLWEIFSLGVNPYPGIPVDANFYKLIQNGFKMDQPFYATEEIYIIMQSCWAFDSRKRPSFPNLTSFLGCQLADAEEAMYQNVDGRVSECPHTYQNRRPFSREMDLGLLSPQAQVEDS
# Chain of CHEK1 (O14757 whole entry, species assumed): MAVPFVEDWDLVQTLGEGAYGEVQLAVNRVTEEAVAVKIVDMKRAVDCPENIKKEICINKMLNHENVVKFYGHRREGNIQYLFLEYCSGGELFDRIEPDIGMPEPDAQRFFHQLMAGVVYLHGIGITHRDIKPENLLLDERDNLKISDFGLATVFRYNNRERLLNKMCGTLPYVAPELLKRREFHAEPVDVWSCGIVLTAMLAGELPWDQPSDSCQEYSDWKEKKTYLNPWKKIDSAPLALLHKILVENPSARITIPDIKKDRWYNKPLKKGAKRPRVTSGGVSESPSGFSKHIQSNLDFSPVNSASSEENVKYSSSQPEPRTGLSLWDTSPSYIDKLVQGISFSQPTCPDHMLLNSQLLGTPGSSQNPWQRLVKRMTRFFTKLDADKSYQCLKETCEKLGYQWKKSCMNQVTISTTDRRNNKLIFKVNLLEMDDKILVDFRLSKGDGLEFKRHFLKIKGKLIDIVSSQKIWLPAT
# T8 sequence (P28482 whole entry): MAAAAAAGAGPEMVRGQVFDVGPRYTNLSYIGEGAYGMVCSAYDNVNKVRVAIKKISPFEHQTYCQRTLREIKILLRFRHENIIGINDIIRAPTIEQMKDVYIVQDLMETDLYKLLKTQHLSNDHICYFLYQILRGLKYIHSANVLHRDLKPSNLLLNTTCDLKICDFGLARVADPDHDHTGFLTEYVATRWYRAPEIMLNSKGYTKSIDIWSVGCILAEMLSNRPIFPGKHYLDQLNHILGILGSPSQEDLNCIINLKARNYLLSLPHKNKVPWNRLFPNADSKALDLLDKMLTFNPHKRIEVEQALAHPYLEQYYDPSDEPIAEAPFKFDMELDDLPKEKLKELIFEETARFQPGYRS
# T10 sequence (Q9BUB5 whole entry): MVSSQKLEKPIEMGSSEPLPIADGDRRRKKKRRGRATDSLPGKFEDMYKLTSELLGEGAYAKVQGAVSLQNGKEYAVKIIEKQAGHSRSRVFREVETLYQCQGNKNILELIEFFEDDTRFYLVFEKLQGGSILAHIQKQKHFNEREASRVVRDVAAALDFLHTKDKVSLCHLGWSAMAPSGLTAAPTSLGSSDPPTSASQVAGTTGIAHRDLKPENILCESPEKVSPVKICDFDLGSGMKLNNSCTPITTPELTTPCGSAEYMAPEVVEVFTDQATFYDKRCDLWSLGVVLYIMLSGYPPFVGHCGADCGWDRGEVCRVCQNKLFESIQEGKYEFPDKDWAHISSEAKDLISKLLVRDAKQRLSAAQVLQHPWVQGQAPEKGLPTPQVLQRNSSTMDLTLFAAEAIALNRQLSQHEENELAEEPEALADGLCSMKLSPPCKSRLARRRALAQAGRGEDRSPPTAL
smiles,measurement,setting,value
"CCN1C(=O)N(c2c(F)c(OC)cc(OC)c2F)Cc2cnc3[nH]c(CN4CCOCC4)cc3c21 [INCB054828, pemigatinib]",GI50,[1],0.007 ± 0.003 µM
same,"potent inhibition of FGFR3 (phospho-FGFR3), concentration",[2],< 10 nM
same,IC50,[3],> 10 µM
same,IC50,[4],> 10 µM
same,inhibition at 0.1 µM,[5],3%
same,inhibition at 0.1 µM,[6],1%
same,inhibition at 0.1 µM,[7],-7%
same,inhibition at 0.1 µM,[8],-17%
same,inhibition at 0.1 µM,[9],-2%
same,inhibition at 0.1 µM,[10],1%
same,inhibition at 0.1 µM,[11],7%
same,inhibition at 0.1 µM,[12],-2%
same,inhibition at 0.1 µM,[13],2%
same,inhibition at 0.1 µM,[14],3%
same,inhibition at 0.1 µM,[15],-6%
same,inhibition at 0.1 µM,[16],6%
same,inhibition at 0.1 µM,[17],6%
same,inhibition at 0.1 µM,[18],-3%
same,benefit of combination with cisplatin over either single agent,[19],significant benefit over either single agent
same,IC50,[20],> 10 µM
same,IC50,[21],> 8 µM
same,IC50,[22],> 10 µM
same,GI50,[23],> 20 µM
same,levels of phospho-FRS2 and phospho-ERK,[24],strongly suppresses
same,average half maximal effective dose for phosphate induction,[25]; 2 independent experiments,2.9 mg/kg
same,serum phosphorus,[25]; 24 hours after dosing,dose-dependent increase
same,IC50,[26],> 10 µM
same,IC50,[27],> 10 µM
same,IC50,[28],> 10 µM
same,IC50,[29],> 10 µM
same,IC50,[30],> 10 µM
